For 25 compounds, IC50 results are on record in ChEMBL document CHEMBL1154314, “Synthesis and antitumor activities of 3-modified 2-methoxyestradiol analogs” (Bioorg Med Chem Lett, 2009).

Each structure is given as a SMILES string.

The subject of one experiment is MDA-MB-231. The experiment in a line: Antiproliferative activity against human MDA-MB-231 cells. The format is functional, cell-based.
The next experiment concerns HUVEC. Description: Antiangiogenic activity in HUVEC assessed as inhibition of cell proliferation. Type of experiment: functional, cell-based. Particulars: Homo sapiens.

For orientation: IC50 means the concentration that inhibits the measured activity by half. With `COc1cc2c(cc1OC)[C@H]1CC[C@]3(C)[C@@H](O)CC[C@H]3[C@@H]1CC2`, the IC50 in the experiment on MDA-MB-231 was 43.7 µM; in the experiment with HUVEC, 31.5 µM.
On to `CNC(=O)c1cc2c(cc1OC)[C@H]1CC[C@]3(C)[C@@H](O)CC[C@H]3[C@@H]1CC2`, for which the IC50 with MDA-MB-231 and in the experiment with HUVEC was above 100 µM throughout.
Consider `COc1cc2c(cc1NC(N)=O)CC[C@@H]1[C@@H]2CC[C@]2(C)[C@@H](O)CC[C@@H]12`, for which the half-maximal inhibitory concentration (IC50) in the experiment with MDA-MB-231 was 0.65 µM; in the experiment on HUVEC, 0.59 µM.
For `COc1cc2c(cc1CO)CC[C@@H]1[C@@H]2CC[C@]2(C)[C@@H](O)CC[C@@H]12` the same measures were 55.6 µM and 28.2 µM.
Consider `COc1cc2c(cc1OS(=O)(=O)C(F)(F)F)CC[C@@H]1[C@@H]2CC[C@]2(C)[C@@H](O)CC[C@@H]12`, for which the IC50 in the experiment on MDA-MB-231 is 21.4 µM; in the experiment with HUVEC it was 3.27 µM.
Regarding `COc1cc2c(cc1S)CC[C@@H]1[C@@H]2CC[C@]2(C)[C@@H](O)CC[C@@H]12`, the IC50 with MDA-MB-231 worked out at 56.2 µM; in the experiment on HUVEC it was 12.9 µM.
Turning to `COc1cc2c(cc1C#N)CC[C@@H]1[C@@H]2CC[C@]2(C)[C@@H](O)CC[C@@H]12`, the IC50 turned out to be 8.98 µM in the experiment on MDA-MB-231 and 2.65 µM in the experiment with HUVEC.
For `COc1cc2c(cc1Br)CC[C@@H]1[C@@H]2CC[C@]2(C)[C@@H](O)CC[C@@H]12` the same measures were 27.5 µM and 9.13 µM.
For the compound `COC(=O)c1cc2c(cc1OC)[C@H]1CC[C@]3(C)[C@@H](O)CC[C@H]3[C@@H]1CC2`, the IC50 in the experiment with MDA-MB-231 and with HUVEC was above 100 µM throughout.
`COc1cc2c(cc1NC=O)CC[C@@H]1[C@@H]2CC[C@]2(C)[C@@H](O)CC[C@@H]12`: the IC50 with MDA-MB-231 turned out to be 0.78 µM; with HUVEC, 0.07 µM.
As to `COc1cc2c(cc1Cl)CC[C@@H]1[C@@H]2CC[C@]2(C)[C@@H](O)CC[C@@H]12`, the half-inhibitory concentration (IC50) came out at 26.9 µM in the experiment with MDA-MB-231 and 7.45 µM with HUVEC.
As to `C=Cc1cc2c(cc1OC)[C@H]1CC[C@]3(C)[C@@H](O)CC[C@H]3[C@@H]1CC2`, the IC50 came to 8.93 µM in the experiment with MDA-MB-231 and 1.96 µM in the experiment on HUVEC.
As for `COC(=O)Nc1cc2c(cc1OC)[C@H]1CC[C@]3(C)[C@@H](O)CC[C@H]3[C@@H]1CC2`, the IC50 in the experiment on MDA-MB-231 came to 17.6 µM; in the experiment on HUVEC, 5.92 µM.
For `COc1cc2c(cc1C(=O)N(C)C)CC[C@@H]1[C@@H]2CC[C@]2(C)[C@@H](O)CC[C@@H]12` the same measures were above 10 µM and above 10 µM.
For `COc1cc2c(cc1NS(=O)(=O)C(F)(F)F)CC[C@@H]1[C@@H]2CC[C@]2(C)[C@@H](O)CC[C@@H]12` the same measures were above 100 µM and 46.2 µM.
For `COc1cc2c(cc1N)CC[C@@H]1[C@@H]2CC[C@]2(C)[C@@H](O)CC[C@@H]12` the same measures were 2.48 µM and 2.32 µM.
Turning to `CCc1cc2c(cc1OC)[C@H]1CC[C@]3(C)[C@@H](O)CC[C@H]3[C@@H]1CC2`, the IC50 in the experiment on MDA-MB-231 came out at 46.9 µM; with HUVEC, 5.44 µM.
Take `COc1ccc2c(c1)[C@H]1CC[C@]3(C)[C@@H](O)CC[C@H]3[C@@H]1CC2`: the IC50 was determined as 62 µM in the experiment with MDA-MB-231 and 22.1 µM in the experiment on HUVEC.
For `COc1cc2c(cc1F)CC[C@@H]1[C@@H]2CC[C@]2(C)[C@@H](O)CC[C@@H]12` the same measures were 2.94 µM and 2.1 µM.
For `COc1cc2c(cc1C(=O)O)CC[C@@H]1[C@@H]2CC[C@]2(C)[C@@H](O)CC[C@@H]12`, the IC50 with MDA-MB-231 and in the experiment with HUVEC was above 100 µM each time.
As for `COc1cc2c(cc1NC#N)CC[C@@H]1[C@@H]2CC[C@]2(C)[C@@H](O)CC[C@@H]12`, the values for the IC50 with MDA-MB-231 and in the experiment on HUVEC were 0.62 µM and 0.47 µM, respectively.
`COc1cc2c(cc1NS(N)(=O)=O)CC[C@@H]1[C@@H]2CC[C@]2(C)[C@@H](O)CC[C@@H]12`: the IC50 with MDA-MB-231 is 9.47 µM; in the experiment with HUVEC, 3.88 µM.
As to `COc1cc2c(cc1NC(C)=O)CC[C@@H]1[C@@H]2CC[C@]2(C)[C@@H](O)CC[C@@H]12`, the IC50 with MDA-MB-231 was found to be 3.95 µM; in the experiment on HUVEC, 1.65 µM.
As for `COc1cc2c(cc1N(C)C)CC[C@@H]1[C@@H]2CC[C@]2(C)[C@@H](O)CC[C@@H]12`, the concentration for half-maximal inhibition (IC50) stood at 103 µM with MDA-MB-231 and 2.82 µM with HUVEC.
For `COc1cc2c(cc1C(N)=O)CC[C@@H]1[C@@H]2CC[C@]2(C)[C@@H](O)CC[C@@H]12` the same measures were 2.36 µM and 2.59 µM.
